In PubChem BioAssay AID2060611 (Molecular Pharmacology Branch, DTP, NCI, 2025):
Where “and” joins values, the source holds several entries; their conditions need not be identical. Identical values can stand only once.

Tested on: 628569-122-R-J1-PDC complex spheroid viability
Experiment: Anticancer human tumor 628569-122-R-J1-PDC patient-derived head and neck squamous carcinoma cell line growth inhibition [CLK]
Conditions: for viability, T/C: stronger effect = lower value; active means viability on the fitted dose curve at most 10% of control; inactive means the rest
Description: A high-throughput screen of multi-cell type tumor spheroids was designed to identify active combinations of […] and targeted small molecules. Complex spheroids include a stromal component modeled by human endothelial cells (HUVEC) and fibroblasts modeled by human mesenchymal stem cells (MSCs). The concentration ranges selected for each drug and investigational agent were based upon clinically achievable concentrations if the clinical Cmax of the agent was known.
Compounds. The drugs and investigational agents: cirtuvivint (SM08502; NSC835563), CC-671 (NSC850746), vemurafenib (NSC761431), tapotoclax (NSC804041), sotorasib (NSC818433), adagrasib (NSC831453), MRTX-1133 (NSC836407), BAY2416964 (NSC825713), copanlisib (NSC816437), inavolisib (NSC800729), abemaciclib (NSC768073), osimertinib (NSC779217), entinostat (NSC756642), eltanexor (KPT-8602, NSC794443), venetoclax (NSC766270), ceralasertib (NSC777638), bortezomib (NSC756655), olaparib (NSC753686), talazoparib (NSC767125), alisertib (NSC759677), peposertib (NSC802822), gemcitabine (NSC613327), 5-fluorouracil (NSC19893), SN-38 (NSC673596), oxaliplatin (NSC266046), paclitaxel (NSC125973), and doxorubicin (NSC123127), were obtained from the National Cancer Institute (NCI) Developmental Therapeutics Program Chemical Repository. The FDA-approved anticancer drug set is available from the Developmental Therapeutics Program at https://dtp.cancer.gov/organization/dscb/obtaining/available plates.htm. […] The stock solutions were prepared in dimethyl sulfoxide (DMSO, Sigma-Aldrich, St. Louis, MO, cat. D2650), except for the platinum complexes which were prepared in saline (Quality Biological, Gaithersburg, MD, cat. 114-055-101), at 800-fold the tested concentration and stored at -70 degrees C prior to their use. All drugs and investigational agents were tested over a range starting from a high concentration at or near the clinical Cmax and decreasing in half-log increments. If the clinical Cmax for an agent had not been determined, the highest concentration tested was 10 microM.
Cell Culture. All cells were maintained in an incubator at 37 degrees C and 5% CO2 with 95% humidity. The PDC lines were cultured according to standard operating procedures established by the NCI PDMR. Briefly, all PDCs were thawed and cultured in Matrigel-coated flasks prepared with a working solution of 1X Ham's F-12 nutrient mix, without supplementation (Invitrogen, Waltham, MA, cat. 11765054), 100 U/mL penicillin-streptomycin (Invitrogen, cat. 15140122), and 2.5% Matrigel (Corning Inc., Corning, NY, cat. 354248) for the first three passages. The 947758-054-R-J2-PDC line was cultured in 6B/Colon 1A media, which includes advanced DMEM/F-12 (Thermo Fisher Scientific, cat. 12634028), 10 mM HEPES (Thermo Fisher Scientific, cat. 15630080), 1X GlutaMAX supplement (Thermo Fisher Scientific, cat. 35050061), 0.1 mg/mL primocin (InvivoGen, cat. ant-pm-2), 10% defined fetal bovine serum, heat inactivated (HyClone Laboratories Inc., cat. SH30070.03HI), 1.25 mM N-Acetyl-L-cysteine (Sigma-Aldrich, cat. A9165), 10 mM nicotinamide (Sigma-Aldrich, cat. N0636), 1X B-27 supplement (Thermo Fisher Scientific, cat. 17504044), 1X N-2 supplement (Thermo Fisher Scientific, cat. 17502048), and 10 microM Y-27632 dihydrochloride (Tocris Bioscience, cat. 1254). The 876862-298-R-J1-PDC was cultured in 6E media, which includes all 6B/Colon 1A media components plus 50% L-WRN conditioned media (ATCC, cat. CRL-3276), 50 ng/mL recombinant human EGF recombinant protein (hEGF; Thermo Fisher Scientific, cat. PHG0311), 10 ng/mL recombinant human fibroblast growth factor 10 (hGFG-10; PeproTech, cat. 100-26), 1 ng/mL recombinant human fibroblast growth factor 2 (hFGF-2; PeproTech, cat. 100-18B), and 1 µM prostaglandin E2 (PGE2; Tocris, cat. 2296). The 227483-062-R1-J1-PDC line was cultured in Panc media, containing all 6E components except hFGF-2, with the addition of 500 nM SB-431542 (Selleckchem, cat. S1067) and 10 nM gastrin (Tocris, cat. 3006). […]

[1] = curve of first compound, second compound 0.0316 µM
[2] = curve of first compound, second compound 0.1 µM
[3] = curve of first compound, second compound 0.316 µM
[4] = curve of first compound, second compound 1 µM
[5] = curve of first compound, second compound 3.16 µM
[6] = curve of first compound, second compound 10 µM
[7] = second compound 0.0316 µM, first compound 0.0316 µM
[8] = second compound 0.0316 µM, first compound 0.1 µM
[9] = second compound 0.0316 µM, first compound 0.316 µM
[10] = second compound 0.0316 µM, first compound 1 µM
[11] = second compound 0.0316 µM, first compound 3.16 µM
[12] = second compound 0.0316 µM, first compound 10 µM
[13] = second compound 0.1 µM, first compound 0.0316 µM
[14] = second compound 0.1 µM, first compound 0.1 µM
[15] = second compound 0.1 µM, first compound 0.316 µM
[16] = second compound 0.1 µM, first compound 1 µM
[17] = second compound 0.1 µM, first compound 3.16 µM
[18] = second compound 0.1 µM, first compound 10 µM
[19] = second compound 0.316 µM, first compound 0.0316 µM
[20] = second compound 0.316 µM, first compound 0.1 µM
[21] = second compound 0.316 µM, first compound 0.316 µM
[22] = second compound 0.316 µM, first compound 1 µM
[23] = second compound 0.316 µM, first compound 3.16 µM
[24] = second compound 0.316 µM, first compound 10 µM
[25] = second compound 1 µM, first compound 0.0316 µM
[26] = second compound 1 µM, first compound 0.1 µM
[27] = second compound 1 µM, first compound 0.316 µM
[28] = second compound 1 µM, first compound 1 µM
[29] = second compound 1 µM, first compound 3.16 µM
[30] = second compound 1 µM, first compound 10 µM
[31] = second compound 3.16 µM, first compound 0.0316 µM
[32] = second compound 3.16 µM, first compound 0.1 µM
[33] = second compound 3.16 µM, first compound 0.316 µM
[34] = second compound 3.16 µM, first compound 1 µM
[35] = second compound 3.16 µM, first compound 3.16 µM
[36] = second compound 3.16 µM, first compound 10 µM
[37] = second compound 10 µM, first compound 0.0316 µM
[38] = second compound 10 µM, first compound 0.1 µM
[39] = second compound 10 µM, first compound 0.316 µM
[40] = second compound 10 µM, first compound 1 µM
[41] = second compound 10 µM, first compound 3.16 µM
[42] = second compound 10 µM, first compound 10 µM
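Further: spheroids exposed to agents for seven days before readout.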

CC(Nc1ccc2c(c1)OCCn1cc(N3C(=O)OCC3C(F)F)nc1-2)C(N)=O (stereo not drawn) + CN1CCN(c2cc(C(=O)Nc3cc4cc(-c5cnn(C)c5)ccc4cn3)ccn2)CC1
< 31.6 nM: IC50 [3] | IC50 [4] | IC50 [5] | IC50 [6]
active: viability, T/C [23] 8.04% | viability, T/C [24] 5.9% | viability, T/C [25] 7.59% | viability, T/C [26] 8.7% | viability, T/C [27] 6.98% | viability, T/C [28] 8.35% | viability, T/C [29] 6.35% | viability, T/C [30] 5.58% | viability, T/C [31] 7.77% | viability, T/C [32] 7.38% | viability, T/C [33] 6.16% | viability, T/C [34] 6.78% | viability, T/C [35] 7.18% | viability, T/C [36] 6.1% | viability, T/C [37] 6.06% | viability, T/C [38] 4.09% | viability, T/C [39] 2.84% | viability, T/C [40] 6.87% | viability, T/C [41] 3.27% | viability, T/C [42] 2.51%
inactive: viability, T/C [7] 76.2% | viability, T/C [8] 71.2% | viability, T/C [9] 50.8% | viability, T/C [10] 41% | viability, T/C [11] 28.9% | viability, T/C [12] 23.2% | viability, T/C [13] 51.8% | viability, T/C [14] 44% | viability, T/C [15] 36.4% | viability, T/C [16] 41.6% | viability, T/C [17] 23.2% | viability, T/C [18] 17.8% | viability, T/C [19] 26.9% | viability, T/C [20] 20.5% | viability, T/C [21] 13.6% | viability, T/C [22] 13.5%
432 nM: IC50 [1]
32 nM: IC50 [2]

COC1C=CCC(C)C(C)S(=O)(=O)NC(=O)c2ccc3c(c2)N(CC2CCC21)CC1(CCCc2cc(Cl)ccc21)CO3 (stereo not drawn)
1490 nM and 826 nM: IC50 (curve of compound)
inactive: viability, T/C (compound 0.0316 µM) 101% and 91.8% | viability, T/C (compound 0.1 µM) 107% and 82.2% | viability, T/C (compound 0.316 µM) 73% and 64.9% | viability, T/C (compound 1 µM) 57.9% and 45.1% | viability, T/C (compound 3.16 µM) 42.4% and 42.2% | viability, T/C (compound 10 µM) 36.5% and 33.7%

CCc1c2c(nc3ccc(O)cc13)-c1cc3c(c(=O)n1C2)COC(=O)[C@]3(O)CC + CN1CCN(c2cc(C(=O)Nc3cc4cc(-c5cnn(C)c5)ccc4cn3)ccn2)CC1
inactive: viability, T/C (second compound 0.0316 µM, first compound 0.00316 µM) 61.5% | viability, T/C (second compound 0.0316 µM, first compound 0.01 µM) 53.1% | viability, T/C [7] 50.2% | viability, T/C [8] 52.2% | viability, T/C [9] 35.8% | viability, T/C (second compound 0.1 µM, first compound 0.00316 µM) 50.9% | viability, T/C (second compound 0.1 µM, first compound 0.01 µM) 49.9% | viability, T/C [13] 47.9% | viability, T/C [14] 58.3% | viability, T/C [15] 23.7% | viability, T/C (second compound 0.316 µM, first compound 0.00316 µM) 40.4% | viability, T/C (second compound 0.316 µM, first compound 0.01 µM) 36.4% | viability, T/C [19] 15%
107 nM: IC50 [2]
active: viability, T/C [10] 9.26% | viability, T/C [16] 5.24% | viability, T/C [20] 9.88% | viability, T/C [21] 4.62% | viability, T/C [22] 6.11% | viability, T/C (second compound 1 µM, first compound 0.00316 µM) 5.48% | viability, T/C (second compound 1 µM, first compound 0.01 µM) 4.65% | viability, T/C [25] 8.79% | viability, T/C [26] 7.58% | viability, T/C [27] 5.31% | viability, T/C [28] 2.58% | viability, T/C (second compound 3.16 µM, first compound 0.00316 µM) 9.55% | viability, T/C (second compound 3.16 µM, first compound 0.01 µM) 6.32% | viability, T/C [31] 5.67% | viability, T/C [32] 8.5% | viability, T/C [33] 4.73% | viability, T/C [34] 2.6% | viability, T/C (second compound 10 µM, first compound 0.00316 µM) 1.57% | viability, T/C (second compound 10 µM, first compound 0.01 µM) 2.38% | viability, T/C [37] 4% | viability, T/C [38] 4.91% | viability, T/C [39] 3.1% | viability, T/C [40] 0.67%
< 3.16 nM: IC50 [3] | IC50 [4] | IC50 [5] | IC50 [6]
90.2 nM: IC50 [1]

CCCS(=O)(=O)Nc1ccc(F)c(C(=O)c2c[nH]c3ncc(-c4ccc(Cl)cc4)cc23)c1F + CN1CCN(c2cc(C(=O)Nc3cc4cc(-c5cnn(C)c5)ccc4cn3)ccn2)CC1
< 31.6 nM: IC50 [3] | IC50 [4] | IC50 [5] | IC50 [6]
> 10000 nM: IC50 [1] | IC50 [2]
active: viability, T/C [25] 5.76% | viability, T/C [26] 9.94% | viability, T/C [27] 5.5% | viability, T/C [28] 5.99% | viability, T/C [29] 5.05% | viability, T/C [30] 5.13% | viability, T/C [31] 5.86% | viability, T/C [32] 6.15% | viability, T/C [33] 6.62% | viability, T/C [34] 4.48% | viability, T/C [35] 5.63% | viability, T/C [36] 8.05% | viability, T/C [37] 5.01% | viability, T/C [38] 2.99% | viability, T/C [39] 2.11% | viability, T/C [40] 1.75% | viability, T/C [41] 1.53% | viability, T/C [42] 1.67%
inactive: viability, T/C [7] 121% | viability, T/C [8] 94.7% | viability, T/C [9] 87.2% | viability, T/C [10] 87.9% | viability, T/C [11] 91.7% | viability, T/C [12] 104% | viability, T/C [13] 70.8% | viability, T/C [14] 72.7% | viability, T/C [15] 68.9% | viability, T/C [16] 80.9% | viability, T/C [17] 86.6% | viability, T/C [18] 93.5% | viability, T/C [19] 37.9% | viability, T/C [20] 36.1% | viability, T/C [21] 37.9% | viability, T/C [22] 46.5% | viability, T/C [23] 46.4% | viability, T/C [24] 44.5%
